Laboratory results from patent US9764037B2, “Conjugate compounds” (Victoria Link Limited, priority 2012, dated 2017).

Assays:
splenic dendritic cells = assay: Impact of prior vaccination on response to free α-GalCer two weeks later, CD86 on splenic dendritic cells (FIGS. 6, 7); format: in vivo, mice; conditions: 200 ng α-GalCer intravenously two weeks after vaccination, FIGS. 6 and 7
Protocol: Flow cytometry is used to assess CD86 upregulation on splenic dendritic cells after intravenous injection of 200 ng α-GalCer, which is used as a readout of NKT cell activity. Mean fluorescence index (MFI)±SEM are presented. […] Each dot represents a different animal; mean per treatment group (n=3)±SEM are presented. ***p<0.001, **p<0.01, * p<0.05.

[1] = HPLC-ESI-MSMS quantification of α-GalCer in formulated test samples; format: physicochemical; conditions: level of α-GalCer in freshly reconstituted formulated samples
Protocol: Compounds of the invention are formulated analogously to reported methods for α-GalCer. Briefly, solubilisation of α-GalCer is based on excipient proportions described by Giaccone et al. (Giaccone, Punt et al. 2002). Thus, 100 μL of a 10 mg/mL solution of α-GalCer or a compound of the invention in 9:1 THF/MeOH is added to 1.78 mL of an aqueous solution of Tween 20 (15.9 mg), sucrose (177 mg) and L-histidine (23.8 mg). This homogeneous mixture is freeze dried and the resulting foam is stored under Ar at −18° C. This material is reconstituted with 1.0 mL of PBS or water prior to serial dilutions in PBS to achieve final injectable solutions of α-GalCer or compounds of the invention.
Quantification of the amount of α-GalCer in various test samples of compounds of the invention is made by HPLC-ESI-MSMS analysis using a Waters 2795 HPLC and a Waters Q-TOF Premier™ Tandem Mass Spectrometer. The chromatography used a Phenomenex Kinetex C18 […] 3.0×50 mm column eluting with isocratic methanol containing 10 mM ammonium formate+0.5% formic acid at a flow rate of 0.2 mL/min. α-GalCer is monitored by selective […] monitoring of 898.7 to 696.7 Da. The estimate of amount of α-GalCer is made by comparison of ion count integrals to a standard curve run on the same day or by comparison to test samples spiked with a known amount of α-GalCer. The level of α-GalCer is determined on freshly reconstituted formulated samples unless otherwise stated

[2] = system: leukocyte infiltration into the lungs; assay: Allergic airway inflammation in OVA-sensitized animals (FIG. 13); format: in vivo, mice; conditions: three days after challenge
Protocol: Control animals receive intranasal PBS instead of challenge, and positive control groups receive challenge but no treatment (“OVA”). The prodrug vaccines and admixed α-GalCer and peptide are administered seven days before challenge […], while the in vitro activated OVA257-specific CTL are administered one day before challenge (day 23). The total numbers of cells in BAL fluid (left), and numbers of eosinophils (right), are evaluated three days after challenge by flow cytometry.

CD11c+ dendritic cells = assay: CD86 expression on splenic dendritic cells after intravenous injection (FIG. 1); format: in vivo, C57BL/6 mice; conditions: 0.571 nmol intravenously, spleens 20 h later
Protocol: Groups of C57BL/6 mice (n=3) are injected intravenously with 0.571 nmol of the indicated compounds and then the spleens removed 20 h later for the analysis of CD86 expression on CD11c^+ dendritic cells by antibody labelling and flow cytometry. Mean fluorescence index (MFI)±SEM are presented.
Antibody staining and flow cytometry is used to examine the expression of maturation markers on dendritic cells in the spleen following injection of compounds of the invention. Splenocyte preparations are prepared by gentle teasing of splenic tissue through gauze in Iscove's Modified Dulbecco's Medium with 2 mM glutamine, 1% penicillin-streptomycin, 5×10^-5 M 2-mercapto-ethanol and 5% fetal bovine serum (all Invitrogen, Auckland, New Zealand), followed by lysis of red blood cells with RBC lysis buffer (Puregene, Gentra Systems, Minneapolis, Minn., USA). Antibody staining is performed in PBS 2% fetal bovine serum and 0.01% sodium azide. The anti-FcgRII monoclonal antibody 2.4G2 is used at […] to inhibit non-specific staining. Monoclonal antibodies (all BD Biosciences Pharmingen, San Jose, Calif., USA) are used to examine expression of the maturation markers CD40, CD80 and CD86 on CD11c+ dendritic cells.

[3] = system: SIINFEKL-specific T cells; assay: Analysis of peptide-specific T cell proliferation in vivo (FIGS. 2, 5, 8, 9); design: species or system mice
Protocol: (SEQ ID NO:262) peptide in each case. To increase sensitivity of the assay, all mice are initially donated a cohort of 10,000 […] (SEQ ID NO:262)-specific T cells from a transgenic mouse encoding a T cell receptor for this antigen (OT-1 mice) by intravenous injection of the cells one day before the vaccines are administered. […] It is therefore possible to enumerate […] (SEQ ID NO:262)-specific T cells in blood by flow cytometry using antibodies for CD45.1 together with antibodies for the transgenic T cell receptor (Vα2). […] Control animals are injected with the diluent phosphate-buffered saline (PBS). […] Each dot represents a different animal; mean per treatment group±SEM are presented.
Accumulation of antigen-specific T cells in the blood in response to vaccination is measured 7 days later, as described for FIG. 2.
Pooled lymph node cell suspensions are prepared from animals of a cross between OT-I mice, which express a transgenic T cell receptor (TCR) specific for the ovalbumin epitope […] in the context of H-2K^b molecules, and B6.SJL-Ptprc^a Pepc^b/BoyJ mice, which are congenic with C57BL/6 mice for the CD45.1^+ marker. The samples are enriched for CD8^+ cells using antibody coated magnetic beads (Miltenyi), and then transferred into recipient mice (1×10^4 per mouse). Groups of recipient animals (n=5) are immunized with compounds of the invention one day later. Doses are chosen to provide equivalent molar values of […] peptide. Control animals receive phosphate-buffered saline. After seven days, blood samples are collected from the lateral tail vein and stained directly ex vivo with antibodies for TCR Vα2, CD45.1 and CD8 to detect the […]-specific CD8^+ T cells by flow cytometry.

T-cell = conditions: Parekh, Wilson et al. 2005; cited from earlier work
[4] = Ebensen, Link et al. 2007; cited from earlier work
[5] = Giaccone, Punt et al. 2002; cited from earlier work

Molecule | DC activation (CD86 upregulation) on administration of free α-GalCer after earlier vaccination (splenic dendritic cells) | α-GalCer/injection [1] | leukocyte infiltration into the lungs (total number of cells in BAL fluid) ([2]; vaccination of sensitized mice one week before challenge) | infiltration of eosinophils (BAL fluid) ([2]; vaccination seven days before challenge) | activation of DCs (expression of activation marker CD86 on splenic DCs) (CD11c+ dendritic cells) | T cell expansion on repeated administration ([3]; FIG. 8) | T cell response on boosting after priming with SIINFEKL with α-GalCer (unconjugated) ([3]; boost day 14 or 35, read day 21 or 42, blood, FIG. 9) | dependence of the T cell response on langerin+ CD8α+ DCs ([3]; depletion by diphtheria toxin, FIG. 2) | population of SIINFEKL-specific T cells (Vα2+ CD45.1+) in blood ([3]; intravenous vaccination, compared with admixed α-GalCer and peptide, lang-EGFPDTR mice, FIG. 2) | T-cell anergy (T-cell) | solubility [4] | efficacy in human clinical trials [5]
CCCCCCCCCCCCCCCCCCCCCCCCCC(=O)OC(CCCCCCCCCCCCCC)C(O)C(COC1OC(CO)C(O)C(O)C1O)NC(=O)OCc1ccc(NC(=O)C(CCCNC(N)=O)NC(=O)C(NC(=O)OCc2ccccc2)C(C)C)cc1 [CN165, (2S,3S,4R)-1-O-α-D-Galactopyranosyl-4-O-hexacosanoyl-2-(N-Cbz-Val-Cit-4-aminobenzyloxycarbonylamino) octadecane-1,3,4-triol] | some DC activation | 0.028 ng |  |  |  |  |  |  |  |  |  | 
CCCCCCCCCCCCCCCCCCCCCCCCCC(=O)OC(CCCCCCCCCCCCCC)C(O)C(COC1OC(CO)C(O)C(O)C1O)NC(=O)OCc1ccc(NC(=O)C(CCCCN)NC(=O)C(Cc2ccccc2)NC(=O)OCc2ccccc2)cc1 [CN166, (2S,3S,4R)-1-O-α-D-Galactopyranosyl-4-O-hexacosanoyl-2-(N-Cbz-Phe-Lys-4-aminobenzyloxycarbonylamino) octadecane-1,3,4-triol] | some DC activation | 0.136 ng |  |  |  |  |  |  |  |  |  | 
(2S,3S,4R)-1-O-α-D-Galactopyranosyl-4-hexacosanoyl-2-((4-(2-(FFRKSIINFEKL)-2-oxoethoxy)imino)pentanoyloxy)methoxycarbonylamino) octadecane-1,3,4-triol [CN152] | some DC activation | 0.05 ng | significantly suppress leukocyte infiltration into the lungs | superior to both CN178 and admixed groups | potently activates DCs | induces further T cell expansion | induces measurable T cell responses | dependent on langerin^+ CD8α^+ DCs | larger population of peptide-specific T cells |  |  | 
CCCCCCCCCCCCCCCCCCCCCCCCCC(=O)N[C@@H](CO[C@H]1O[C@H](CO)[C@H](O)[C@H](O)[C@H]1O)[C@H](O)[C@H](O)CCCCCCCCCCCCCC [α-GalCer, α-Galactosylceramide] | no measurable activation of DCs |  |  |  |  |  |  |  |  | promotion of T-cell anergy | poor solubility | lack of efficacy
